Laboratory results as given in patent US8569482B2, “Nanoparticulate probe for in vivo monitoring of tissue oxygenation” (priority 2003, dated 2013).
Where “and” joins values, the source holds several entries; their conditions need not be identical. Identical values can stand only once. Entries after “also recorded” stand apart in the source; their conditions may differ.

Assays:
[1] = tested on: mouse aortic endothelial cells (MAECs); type: cell-based
[2] = tested on: Human arterial smooth muscle cells (HASMCs)
Experimental: Cultute of Smooth Muscle Cells Human arterial smooth muscle cells (HASMCs) were obtained from Clonetics, San Diego, Calif. at passage 4. Cells were cultured and passed in Ham's medium containing 225 ml of DMEM, 225 ml of F-12 medium, 50 ml of FBS (10%), 5 ml of glutamate and 5 ml of antibiotics in a final volume of 500 ml. Cell cultures were maintained at 37° C. under 95% air/5% CO2 environment in 35 mm dishes. HASMCs up to passage 11 were used in the current study.
Preparation of Particulates for Cell Culture Studies Fine crystals of freshly synthesized LiNc-BuO were suspended in Ham's medium (10 mg/0.5 ml) and sonicated ten times for 30 sec on ice with a probe sonicator at a setting of 5. The particulate mixture was cooled on ice for 1 min between two successive 30 sec burst of sonication. […] The size of the particulates for intracellular delivery was <2 μm as determined by optical microscopy.
Internalization of Particulates into Smooth Muscle Cells HMSMCs, at 70% confluence (10^4 cells/dish), in 1 ml Ham's medium were treated with 50 μl of LiNc-BuO particulate suspension that contained particulates of <2 μm prepared by the procedure as mentioned before. […] Cell viability was assessed by light microscopy and Alamar Blue assay according to the manufacturer's recommendations.

[3] = Effect of biological oxidoreductants, pH and radiation on EPR stability and oxygen response; type: physicochemical
Description: Effect of Biological Oxidoreductants, pH, Temperature, and Radiation Since our goal was to use the newly synthesized particulate material for biological applications, we thoroughly investigated the EPR stability (paramagnetism) as well as sensitivity of the EPR line-width to molecular oxygen in presence of a variety of biological oxidants, reductants, pH and radiation. […] We also observed that pH of the medium in the range 2-10 had no effect on their EPR sensitivity to oxygen. We also treated the particulates with 15.5 Gy of Cobalt-60 γ-ray irradiation for 10 min and found no effect on the EPR properties of the particulates.

[4] = Reduction of particle size using high frequency ultrasound; type: physicochemical; details: after 20 kHz then 269-1062.4 kHz sonication in water
Experimental: LiNc-BuO particles were crushed to a fine powder using a spatula. LiNc-BuO (20 mg) was suspended in […] of water without any additives (a total of 5 samples were made). The samples were then sonicated at 20 kHz frequency. 20 kHz sonolysis was conducted at a power setting of “2” for a total time of 5 minutes. All 5 samples were sonicated in this way. The samples were then allowed to sit overnight. The following day, the supernatant was extracted from all samples and placed in a measuring cylinder to make a 5 ml sample of suspended, small particles in aqueous solution. 1 ml of this stock was used to determine the particle size. The remaining 4 ml stock LiNc-BuO suspension was sonicated at various frequencies in the following way: 1 ml stock was placed in a test tube and suspended in the ultrasound bath which was operated at either 269, 354, 803 or 1062.4 kHz and a power of 60 W for a total time of 10 minutes. The 1 ml sample was then diluted to 2 ml using Milli-Q filtered water and the particle size determined. […] The procedure yielded particulates with mean size, 240 nm, with a min size, 72 nm.

[5] = tested on: bovine lung microvascular endothelial cells (BLMVECs)
Experimental: Bovine Lung Microvasular Endothelial Cells (BLMVECs) Culture The BLMVECs used in this study were obtained from the VEC Technologies, Inc, New York. BLMVECs cultured in MEM were maintained in 75 mm flasks at 37° C. in a humidified atmosphere of 5% CO2/95% air and grown to contact-inhibited monolayers with a typical cobblestone morphology [157]. Cells from each primary flask were detached with 0.05% trypsin, resuspended in fresh medium, and cultured in complete medium to 70% confluency for other studies. Cells from passages 10-14 were used in all the experiments.
Preparation of Particulates for Cell Culture Studies Microcrystalline particulates of LiNc-BuO were suspended in complete MEM medium (10 mg/0.5 ml) and sonicated for 30 sec pulse for ten times on ice with a probe sonicator at a setting of 5. The particulate suspension was cooled for 1 min between two successive 30 sec bursts of sonication. At the end of sonication, the suspension was placed on ice for exactly 2 min to allow the heavier particulates to settle down at the bottom of the tube and the supernatant liquid was transferred to a separate tube for intracellular delivery. The solution contained fine particulates of LiNc-BuO with a particulate size <2 μm. All the preparations were carried out under sterile conditions.
Internalization of Particulates into Endothelial Cells BLMVECs, at 70% confluence (10^4 cells/35 mm dish), in 1 ml complete MEM were treated with 50 μl of LiNc-BuO particulate suspension that contained particulates of <2 μm prepared by procedure as described under Materials and Methods. The cells were maintained at 37° C. under 95% air/5% CO2 environment. At 6 h intervals, for 72 h, cells were examined under light microscope for internalization of LiNc-BuO particulates. […] The cell pellet was resuspended in MEM containing glucose (0.5 g per 500 ml), at a density of 2×10^5 cells/ml and used for EPR analysis. Cells after LiNc-BuO internalization and repeated washings were photographed under an inverted microscope while still adherent to the substratum of the 35 mm dish. Cell viability was assessed by light microscopy and Alamar Blue assay according to the manufacturer's recommendations. Cell separation by trypsinization was avoided to keep the cell morphology and function in tact.
A 20 μL volume of the cell suspension containing 4,000 cells and 10 μM TAM was drawn into a gas-permeable Teflon tube and subjected to EPR spectroscopy as described below. The measurements were also carried out with Menadione (50 μM) and KCN (100 μM).
EPR Measurements The EPR measurements were carried out using a Bruker X-band (9.8 GHz) spectrometer (Bruker Instruments, Karlshrue, Germany) equipped with TM110 cavity. EPR spectral acquisitions were performed using custom-developed data acquisition software (SPEX) that was capable of fully automated data acquisition and processing. Unless otherwise mentioned, the EPR line-widths reported are peak-to-peak widths (.Bpp) of the first derivative spectra.
Simultaneous Measurements of LiNc-BuO and TAM Line-Shapes LiNc-BuO and TAM were used as site specific oximetry probes to measure intra- and extracellular oxygen concentration, respectively. Both LiNc-BuO and TAM give a single-line EPR spectrum, whose amplitude (intensity) and width depend on the amount/concentration of the probe and oxygen, respectively.

[6] = tested on: gastrocnemius muscle tissue of C3H mice; experiment: Long-term stability and oxygen response of particulates implanted in gastrocnemius muscle; type: in vivo; details: versus original unimplanted particulate, through 180 day study
Experimental: Animal Studies Female C3H mice were used in the present work. The mice were supplied through the Frederick Cancer Research Center Animal Production, Frederick, Md. The animals were received at 6 weeks of age and housed five per cage in climate-controlled rooms and allowed food and acidified water ad lib. The animals were on average 50 days old at the time of experimentation and weighed 25±3 g. Experiments were conducted according to the principles outlined in the Guide for the Care and Use of Laboratory Animals prepared by the Institute of Laboratory Animal Resources, National Research Council.
Implantation of LiNc-BuO in Tumor and Gastrocnemius Muscle of Mice Mice were anesthetized with breathing of isoflurane (1.5%)—air mixture delivered through a nose cone. […]
Stability in Tissues In order to evaluate the long-term stability of these particulates in tissues, we implanted the particulates in the gastrocnemius muscle tissue of mice and performed repeated measurements of pO2 in the same animals over a period of time. […] The EPR spectrum of the particulate in the leg was recorded periodically up to 180 days following the implantation of particulate (FIG. 4). […] Mice were periodically sacrificed through the 180 day study period and tissue pO2 values were assessed to verify the registration of anoxic pO2 in the dead tissue. […]

[7] = tested on: K56 (an erythroleukemic cell line) and A 431 (an epidermal carcinoma cell line); details: 200 μM; cited from earlier work
[8] = particulates <2 μm, within 18 h
[9] = switching gas between nitrogen and room air

Compound: c1ccc2c(c1)[I+]c1ccccc1-2 [DPI, diphenyleneiodonium chloride]
- effect on oxygen consumption rate (OCR) [1]: complete inhibition of oxygen consumption; also recorded: complete inhibition of the OCR; also recorded: completely blocked

Compound: Lithium 5,9,14,18,23,27,32,36-octa-n-butoxy-2,3-naphthalocyanine [LiNc-BuO]
- cytotoxicity (light microscopy, Alamar Blue) [2]: no apparent cytotoxicity
- internalization of particulates in cells [2, 8]: almost all the cells in the 35 mm dish internalized the particulates
- effect of gamma irradiation on EPR properties ([3]; 15.5 Gy Cobalt-60, 10 min): no effect
- effect of pH on EPR sensitivity to oxygen ([3]; pH 2-10): no effect
- effect of oxidants and reductants on EPR spectrum or oxygen response ([3]; superoxide, hydroxyl, H2O2, singlet oxygen, alkylperoxyl, nitric oxide, GSH, ascorbate, 30 min): did not show any effect
- mean particle size [4]: 240 nm
- min particle size [4]: 72 nm
- spin density relative to LiPc: seven-fold higher
- anoxic peak-to-peak EPR line-width (0% oxygen, X-band, room temperature): 210 mg
- peak-to-peak EPR line-width in room air (20.9% oxygen (159 mmHg)): 1550 mg
- peak-to-peak EPR line-width in 100% oxygen (100% oxygen, 760 mmHg): 6675 mg
- microwave power saturation (X-band): not saturable for up to 25 mW; also recorded: nonsatuarable up to 25 mW
- oxygen sensitivity (slope of line-width versus pO2) (linear in pO2 range measured (0-160 or 0-760 mmHg)): 8.5 mG/mmHg
- pO2 resolution (physiological range): ~0.2 mmHg and ~0.1 mmHg
- peak-to-peak EPR line-width at 10% oxygen (suspended in PBS, 10% oxygen (pO2 76 mmHg)): 852 mg
- response time, deoxygenation [9]: ~20 s
- response time, oxygenation [9]: ~1 s
- effect of aqueous dispersion media on line-width and lineshape (water, PBS, cell culture media): not affected
- cytotoxicity (light microscopy, Alamar Blue) [5]: no cytotoxicity
- viability of cells that internalized probe (Trypan blue exclusion) [5]: > 95%
- mean spin density of particulates internalized in a single cell ([5]; in comparison with TAM standard): 6×10^11 spins/cell
- cells that internalized the particulates [5, 8]: ~95%
- oxygen sensitivity of particulates recovered from dead tissue [6]: not changed

Compound: C=C(C)[C@H]1Cc2c(ccc3c2O[C@@H]2COc4cc(OC)c(OC)cc4[C@@H]2C3=O)O1 [rotenone]
- effect on oxygen consumption rate (OCR) [1]: complete inhibition of oxygen consumption; also recorded: complete inhibition of the OCR; also recorded: completely inhibited the consumption of oxygen

Compound: CC1=CC(=O)c2ccccc2C1=O [menadione]
- effect on oxygen consumption rate (OCR) [1]: increased rates of oxygen consumption; also recorded: increased the OCRs
- increase in OCR ([1]; 50 μM): two-fold increase
- effect on OCR at lower concentrations ([1]; 10 and 50 μM, measured immediately): significant increase in the OCR
- effect on OCR at higher concentrations ([1]; 100 and 200 μM, measured immediately): decrease in the OCR; also recorded: significantly less compared to the control values
- effect on intra- and extracellular pO2 and oxygen gradient ([5]; menadione 50 μM, cyanide 100 μM, listed as Menadione): did not affect significantly
- increase of intra- and extracellular pO2 [7]: 10-15%
